Assay results: ChEMBL document CHEMBL5050861 (2021); call rule not given here
Converted amounts (≈) assume the structure as drawn. Each block holds one compound with its values, some of them ahead of it.

Experiments:
[1] = target: Galactokinase (Homo sapiens, UniProt P51570); test: Inhibition of recombinant human GALK1 using ATP as substrate incubated for 1 hr and measured by Kinase-Glo assay
[2] = Kinetic aqueous solubility of the compound; type: physicochemical; conditions: buffer; read-out: Kinetic_solubility
[3] = Inhibition of recombinant mouse GALK1 using ATP as substrate incubated for 1 hr and measured by Kinase-Glo assay
[4] = Stability of compound in rat microsomes assessed as half-life; type: ADME, Microsome
[5] = Permeability of compound by PAMPA assay; type: ADME; conditions: read-out: permeability
[6] = Inhibition of human GALK1 K252A/E253A double mutant; conditions: read-out: IC50
[7] = species on record: Homo sapiens; test: Inhibition of human GALK1 K252A/E253A double mutant relative to control; set-up: concentration or dose not given beside the values; conditions: concentration not given here

Chain of Galactokinase (P51570 whole entry): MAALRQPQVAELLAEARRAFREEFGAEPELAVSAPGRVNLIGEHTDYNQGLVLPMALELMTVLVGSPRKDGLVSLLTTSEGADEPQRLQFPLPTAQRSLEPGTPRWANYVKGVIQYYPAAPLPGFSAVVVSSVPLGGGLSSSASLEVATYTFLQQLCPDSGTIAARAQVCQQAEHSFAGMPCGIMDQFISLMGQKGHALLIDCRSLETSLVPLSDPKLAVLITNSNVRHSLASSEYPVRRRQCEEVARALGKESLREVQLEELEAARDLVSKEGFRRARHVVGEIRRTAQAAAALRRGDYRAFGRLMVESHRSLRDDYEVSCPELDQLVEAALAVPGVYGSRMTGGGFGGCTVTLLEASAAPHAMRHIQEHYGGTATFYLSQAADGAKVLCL

Compound: CCOC(=O)C1=C(C)NC(Nc2nc3ccccc3o2)=NC1c1ccccc1Cl (configuration not stated)
IC50 [1]: Not Active
solubility kinetic [2]: < 1 µg/mL
IC50 ([3]; read-out: IC50): 13.7 µM
half-life [4]: 19.3 min

Compound: CC1=C(C(=O)NCc2cn(C)cn2)[C@@H](c2ccccc2Cl)N=C(Nc2nc3ccccc3o2)N1
IC50 [1]: Not Active
solubility kinetic [2]: 40.5 µg/mL (≈ 85.1 µM)
IC50 [3]: Not Active
half-life [4]: 8.73 min

Compound: CC1=C(C(=O)Nc2nnc(-c3cccnc3)s2)C(c2ccccc2Cl)N=C(Nc2nc3ccc(C)cc3o2)N1 (configuration not stated)
IC50 [1]: Not Active
Papp [5]: < 2.9 ×10⁻⁶ cm/s
solubility kinetic [2]: < 1 µg/mL
IC50 [3]: Not Active
half-life [4]: > 30 min

Compound: COCC1=C(C(=O)Nc2nncs2)C(c2ccccc2Cl)N=C(Nc2nc3ccccc3o2)N1 (configuration not stated)
IC50 ([1]; read-out: IC50): 13.7 µM
solubility kinetic [2]: < 1 µg/mL
IC50 ([3]; read-out: IC50): 19.3 µM
half-life [4]: > 30 min

Compound: COC(=O)C1=C(C(F)(F)F)NC(Nc2nc3ccccc3o2)=NC1c1ccccc1Cl (configuration not stated)
IC50 [1]: Not Active
solubility kinetic [2]: 2.65 µg/mL (≈ 5.88 µM)
IC50 [3]: Not Active
half-life [4]: 10.5 min

Compound: CC1=C(C(=O)N(C)c2ccccc2)C(c2ccccc2Cl)N=C(Nc2nc3ccccc3o2)N1 (configuration not stated)
IC50 [1]: Not Active
solubility kinetic [2]: < 1 µg/mL
IC50 [3]: Not Active
half-life [4]: 1.18 min

Compound: COC(=O)c1ccccc1NC(=O)C1=C(C)NC(Nc2nc3ccccc3o2)=NC1c1ccccc1Cl (configuration not stated)
IC50 [1]: Not Active
IC50 [3]: Not Active

Compound: CCOC(=O)C1=C(C(C)C)NC(Nc2nc3ccccc3o2)=NC1c1ccccc1Cl (configuration not stated)
IC50 [1]: Not Active
solubility kinetic [2]: < 1 µg/mL
IC50 [3]: Not Active
half-life [4]: 5.75 min

Compound: CC1=C(C(=O)NCc2ccccc2Cl)C(c2ccccc2Cl)N=C(Nc2nc3ccccc3o2)N1 (configuration not stated)
IC50 [1]: Not Active
solubility kinetic [2]: < 1 µg/mL
IC50 [3]: Not Active
half-life [4]: 4.22 min

Compound: CC1=C(C(=O)Nc2nncs2)C2(Cc3ccccc32)N=C(Nc2nc3ccccc3o2)N1 (configuration not stated)
IC50 [1]: Not Active
solubility kinetic [2]: 50.9 µg/mL (≈ 115 µM)
IC50 [3]: Not Active
half-life [4]: > 30 min

Compound: CC1=C(C(=O)NCc2ccc(Cl)cc2)C(c2ccccc2Cl)N=C(Nc2nc3ccccc3o2)N1 (configuration not stated)
IC50 [1]: Not Active
solubility kinetic [2]: < 1 µg/mL
IC50 [3]: Not Active
half-life [4]: 11.9 min

Compound: COc1ccc2oc(NC3=NC(c4ccccc4Cl)C(C(=O)Nc4nnc(-c5cccnc5)s4)=C(C)N3)nc2c1 (configuration not stated)
IC50 [1]: Not Active
Papp [5]: < 19.1 ×10⁻⁶ cm/s
solubility kinetic [2]: < 1 µg/mL
IC50 [3]: Not Active
half-life [4]: > 30 min

Compound: CC1=C(C(=O)Nc2ccccc2)C(c2ccccc2Cl)N=C(Nc2nc3ccccc3o2)N1 (configuration not stated)
Papp [5]: < 10 ×10⁻⁶ cm/s
IC50 [6]: 0.97 µM
inhibition [7]: 57%
solubility kinetic [2]: < 1 µg/mL
IC50 ([3]; read-out: IC50): 13.7 µM
half-life [4]: 24 min

Compound: CC1=C(C(=O)NCc2nccn2C)C(c2ccccc2Cl)N=C(Nc2nc3ccccc3o2)N1 (configuration not stated)
Papp [5]: > 1110 ×10⁻⁶ cm/s
IC50 [6]: 11 µM
inhibition [7]: 94%
solubility kinetic [2]: 23 µg/mL (≈ 48.3 µM)
IC50 ([3]; read-out: IC50): 13.7 µM
half-life [4]: 6.42 min

Second part, the compound after the results:

IC50 ([1]; read-out: IC50): 2.24 µM
solubility kinetic [2]: < 1 µg/mL
IC50 ([3]; read-out: IC50): 7.08 µM
half-life [4]: 25.3 min
Compound: COC(=O)c1ccnc(NC(=O)C2=C(C)NC(Nc3nc4cccc(N)c4o3)=NC2c2ccc(C)cc2Cl)c1 (configuration not stated)

Papp [5]: < 1 ×10⁻⁶ cm/s
IC50 [6]: 3.1 µM
inhibition [7]: 96%
solubility kinetic [2]: 59.1 µg/mL (≈ 118 µM)
IC50 ([3]; read-out: IC50): 6.11 µM
half-life [4]: > 30 min
Compound: CC1=C(C(=O)Nc2cccc(C(=O)O)c2)C(c2ccccc2Cl)N=C(Nc2nc3ccccc3o2)N1 (configuration not stated)

Papp [5]: < 10 ×10⁻⁶ cm/s
IC50 [6]: > 15 µM
inhibition [7]: 75%
solubility kinetic [2]: > 84 µg/mL
IC50 ([3]; read-out: IC50): 38.5 µM
half-life [4]: > 30 min
Compound: CC1=C(C(=O)Nc2cc(C(=O)O)ccn2)C(c2cccc(S(N)(=O)=O)c2)N=C(Nc2nc3ccc(F)cc3o2)N1 (configuration not stated)

Papp [5]: > 100 ×10⁻⁶ cm/s
IC50 [6]: 3.1 µM
inhibition [7]: 94%
solubility kinetic [2]: < 10000 µg/mL
IC50 ([3]; read-out: IC50): 21.7 µM
half-life [4]: > 30 min
Compound: CC1=C(C(=O)Nc2cc(C(=O)O)ccn2)C(c2ccccc2Cl)N=C(Nc2nc3c(F)cccc3o2)N1 (configuration not stated)

Papp [5]: < 1 ×10⁻⁶ cm/s
IC50 [6]: 6.9 µM
inhibition [7]: 100%
solubility kinetic [2]: 34.4 µg/mL (≈ 66.6 µM)
IC50 ([3]; read-out: IC50): 17.2 µM
half-life [4]: > 30 min
Compound: CC1=C(C(=O)Nc2cc(C(=O)O)ccn2)C(c2ccccc2Cl)N=C(Nc2nc3ccc(C)cc3o2)N1 (configuration not stated)

IC50 [1]: Not Active
Papp [5]: < 9.2 ×10⁻⁶ cm/s
solubility kinetic [2]: < 1 µg/mL
IC50 [3]: Not Active
half-life [4]: > 30 min
Compound: CC1=C(C(=O)Nc2cccc(Cl)c2)C(c2ccccc2Cl)N=C(Nc2nc3ccccc3o2)N1 (configuration not stated)

Papp [5]: < 1.3 ×10⁻⁶ cm/s
IC50 [6]: 5.5 µM
inhibition [7]: 100%
solubility kinetic [2]: 3.5 µg/mL (≈ 6.77 µM)
IC50 ([3]; read-out: IC50): 17.2 µM
half-life [4]: > 30 min
Compound: CC1=C(C(=O)Nc2cc(C(=O)O)ccn2)C(c2ccccc2Cl)N=C(Nc2nc3c(C)cccc3o2)N1 (configuration not stated)

Papp [5]: < 10 ×10⁻⁶ cm/s
IC50 [6]: 3.6 µM
inhibition [7]: 100%
solubility kinetic [2]: 55.5 µg/mL (≈ 99.9 µM)
IC50 ([3]; read-out: IC50): 21.7 µM
half-life [4]: > 30 min
Compound: CC1=C(C(=O)Nc2cc(C(=O)O)ccn2)C(c2cccc(Cl)c2Cl)N=C(Nc2nc3ccc(F)cc3o2)N1 (configuration not stated)

Papp [5]: < 1 ×10⁻⁶ cm/s
IC50 [6]: 0.258 µM
inhibition [7]: 100%
solubility kinetic [2]: 40.6 µg/mL (≈ 75.3 µM)
IC50 ([3]; read-out: IC50): 4.32 µM
half-life [4]: > 30 min
Compound: CC1=C(C(=O)Nc2cc(C(=O)O)ccn2)C(c2ccc(F)cc2Cl)N=C(Nc2nc3ccc(F)cc3o2)N1 (configuration not stated)

IC50 ([1]; read-out: IC50): 0.086 µM
IC50 ([3]; read-out: IC50): 1.72 µM
Compound: CC1=C(C(=O)Nc2cc(C(=O)O)ccn2)[C@H](c2ccccc2Cl)N=C(Nc2nc3cccc(N)c3o2)N1

IC50 [1]: Not Active
Papp [5]: < 1.8 ×10⁻⁶ cm/s
solubility kinetic [2]: < 1 µg/mL
IC50 [3]: Not Active
half-life [4]: > 30 min
Compound: CC1=C(C(=O)Nc2cccc(Br)c2)C(c2ccccc2Cl)N=C(Nc2nc3ccccc3o2)N1 (configuration not stated)

Papp [5]: < 10 ×10⁻⁶ cm/s
IC50 [6]: 0.235 µM
inhibition [7]: 100%
solubility kinetic [2]: 36 µg/mL (≈ 63.7 µM)
IC50 ([3]; read-out: IC50): 3.85 µM
half-life [4]: > 30 min
Compound: CC1=C(C(=O)Nc2cc(C(=O)O)ccn2)C(c2ccccc2Br)N=C(Nc2nc3ccc(F)cc3o2)N1 (configuration not stated)

IC50 [1]: Not Active
solubility kinetic [2]: < 1 µg/mL
IC50 [3]: Not Active
half-life [4]: 25.6 min
Compound: COC(=O)c1ccnc(NC(=O)C2=C(C)NC(Nc3nc4ccccc4o3)=N[C@@H]2c2ccccc2Cl)c1

IC50 ([1]; read-out: IC50): 3.85 µM
Papp [5]: 8.8 ×10⁻⁶ cm/s
solubility kinetic [2]: < 1 µg/mL
half-life [4]: > 30 min
Compound: CCOC(=O)c1ccc(NC(=O)C2=C(C)NC(Nc3nc4ccccc4o3)=NC2c2ccccc2Cl)cc1 (configuration not stated)

Papp [5]: < 1 ×10⁻⁶ cm/s
IC50 [6]: 3.8 µM
inhibition [7]: 90%
solubility kinetic [2]: > 78 µg/mL
IC50 ([3]; read-out: IC50): 21.7 µM
half-life [4]: > 30 min
Compound: CC1=C(C(=O)Nc2cc(C(=O)O)ccn2)C(c2cccc(C(N)=O)c2)N=C(Nc2nc3ccc(F)cc3o2)N1 (configuration not stated)

Papp [5]: 10 ×10⁻⁶ cm/s
IC50 [6]: 5.5 µM
inhibition [7]: 100%
solubility kinetic [2]: > 76 µg/mL
IC50 ([3]; read-out: IC50): 21.7 µM
half-life [4]: > 30 min
Compound: CC1=C(C(=O)Nc2cc(C(=O)O)ccn2)C(c2ccccc2Cl)N=C(Nc2nc3cc(N)ccc3o2)N1 (configuration not stated)

Papp [5]: < 1 ×10⁻⁶ cm/s
IC50 [6]: 2 µM
inhibition [7]: 100%
solubility kinetic [2]: > 79 µg/mL
IC50 ([3]; read-out: IC50): 12.2 µM
half-life [4]: > 30 min
Compound: COc1ccc2oc(NC3=NC(c4ccccc4Cl)C(C(=O)Nc4cc(C(=O)O)ccn4)=C(C)N3)nc2c1 (configuration not stated)

Papp [5]: < 10 ×10⁻⁶ cm/s
IC50 [6]: 0.365 µM
inhibition [7]: 100%
solubility kinetic [2]: > 76 µg/mL
IC50 ([3]; read-out: IC50): 6.85 µM
half-life [4]: > 30 min
Compound: CC1=C(C(=O)Nc2cc(C(=O)O)ccn2)C(c2ccccc2Cl)N=C(Nc2nc3cccc(C)c3o2)N1 (configuration not stated)

Papp [5]: < 1 ×10⁻⁶ cm/s
IC50 [6]: 1 µM
inhibition [7]: 100%
solubility kinetic [2]: 57.5 µg/mL (≈ 107 µM)
IC50 ([3]; read-out: IC50): 9.68 µM
half-life [4]: > 30 min
Compound: CC1=C(C(=O)Nc2cc(C(=O)O)ccn2)C(c2ccccc2Cl)N=C(Nc2nc3cccc(Cl)c3o2)N1 (configuration not stated)
